# Laboratory results as given in patent publication US20070021391A1, “Preventive/remedy for urinary disturbance” (priority 2003, published 2007).
# Where a name gives a salt, the structure may show the parent alone. Read-outs that look alike come from different tables or passages of the source.
# Tests used:
# [1] = tested on: Hartley male guinea pig, urethane anesthesia; test: Pressure/flow study using guinea pig (Example 3); format: in vivo; conditions: for Amount of urination, proportion for value before administration (%) / At maximum urine flow rate Inner pressure of bladder, proportion for value before administration (%) / Maximum urine flow rate, proportion for value before administration (%): i.v.; for Bladder compliance, proportion for value before administration (%) / Bladder volume, proportion for value before administration (%): iv; for change of the parameters at urination and at collection of urine (text): intravenous administration
# Procedure: A Hartley male guinea pig of 5 weeks old (Japan SLC) was used. After urethane anesthesia, the medial incision of the lower abdomen was carried out, and the bladder was exposed. Two injection needles (20G) with which a polyethylene tube (PE-100) was linked were inserted in the bladder, and one needle was used for injection of saline and another needle was used for measurement of the inner pressure of the bladder. The injection of saline was continuously carried out at a rate of 18 mL/h using a syringe pump (SP-100S, JMS, and Hiroshima), the injection was stopped after intermittent urination was confirmed 3 times at minimum, and the saline in the bladder was removed by suction. Injection was started again, and the injection was stopped when the raise of the inner pressure of the bladder just before urination was confirmed. The amount of urine excreted was measured by an electronic weighing machine (HX-400, A&D, and Tokyo) and the inner pressure of the bladder was measured using a pressure transducer (AP641G, NIPPON KODEN Corporation). The analogue data of the weight of urine and the inner pressure of the bladder were inputted in a multi-channel data analyzer (MP-100A-CE, Biopac systems), and analyzed by a proprietary software (Acqknowledge, Biopac systems). The sampling interval of data was 0.1 second and a low pass filter was applied to the data of discharge amount and urine flow rate at 0.5 Hz in order to remove noise. A delay time of 0.1 second in weighing the urine was rectified, and the urine flow rate was determined by differentiating the value of discharge amount. After a value before twice administration of the drug was measured, the drugs (the compound A, distigmine, neostigigmine and bethanechol) were intravenously administrated. Saline in the bladder was extracted after 10 minutes of administration of the compound A, bethanechol and neostigigmine and after 30 minutes of administration of distigmine, and injection was started again to measure data. The drugs were dissolved with distilled water so that administration volume was 0.5 mL/kg. Parameters (bladder volume, the amount of urination, the maximum urine flow rate, the inner pressure of the bladder at the maximum urine flow, bladder compliance) below were measured. The bladder compliance was calculated from intersection point (the threshold of bladder volume, threshold pressure) which was obtained by determining regression line in the respective curves of the inner pressure of the bladder at collection of urine and urinary reflex. The change rate before and after administration of the drug was calculated for the respective parameters and the calibration of significant difference was carried out by a solvent administration group and Dunnett calibration (Table 6 and Table 7).
# [2] = tested on: Hartley male guinea pig, urethane anesthesia; test: Pressure/flow study using guinea pig under continuous phenylephrine (Example 4); format: in vivo; conditions: i.v., phenylephrine 3 μg/animal/min
# Procedure: A parameter (the maximum urine flow rate) at urination and a parameter (bladder compliance) at the collection of urine were also measured by a method similar as Example 3 shown below, with respect to the compounds B1 to B6 ([Table 8]).
# A Hartley male guinea pig of 4 to 5 weeks old (Japan SLC) was used. After urethane anesthesia, the medial incision of the lower abdomen was carried out, and the bladder was exposed. Two injection needles (20G) with which a polyethylene tube (PE-100) was linked were inserted in the bladder, and one needle was used for injection of saline and another needle was used for measurement of the inner pressure of the bladder. A catheter was inserted in fernoral vein, and phenylephrine was continuously administrated at a flow rate of 3 μg/animal/min. Saline was continuously injected at a speed of 18 mL/h, the injection was stopped after intermittent urination was confirmed 2 times at minimum, and the saline in the bladder was removed by suction. Injection was started again, and the injection was stopped when the raise of the inner pressure of the bladder just before urination was confirmed. The amount of urine eliminated was measured by an electronic weighing machine and the inner pressure of the bladder was measured using a pressure transducer. The analogue data of the weight of urine and the inner pressure of the bladder were inputted in a multi-channel data analyzer (MP-100A-CE, Biopac systems), and analyzed by a proprietary software (Acqknowledge, Biopac systems). As the parameters, the maximum urine flow rate and bladder compliance were measured. Saline in the bladder was extracted after 10 min of the intravenous administration of the compound, and injection was started again to carry out measurement. The compounds were dissolved with DMSO so that administration volume was 0.5 mL/kg. The change rate of respective parameters before and after administration of the compounds was calculated and the calibration of significant difference was carried out by a solvent administration group and t calibration.
# [3] = biological target: T1, acetylcholine esterase of human erythrocyte origin (Homo sapiens, UniProt P22303); test: biochemical; format: biochemical
# T1 construct: acetylcholine esterase of human erythrocyte origin; purchased Sigma, St. Louis, Mo., USA; host or cells: human erythrocytes
# T1 sequence (P22303 32-617 isoform P22303-2 limits assumed): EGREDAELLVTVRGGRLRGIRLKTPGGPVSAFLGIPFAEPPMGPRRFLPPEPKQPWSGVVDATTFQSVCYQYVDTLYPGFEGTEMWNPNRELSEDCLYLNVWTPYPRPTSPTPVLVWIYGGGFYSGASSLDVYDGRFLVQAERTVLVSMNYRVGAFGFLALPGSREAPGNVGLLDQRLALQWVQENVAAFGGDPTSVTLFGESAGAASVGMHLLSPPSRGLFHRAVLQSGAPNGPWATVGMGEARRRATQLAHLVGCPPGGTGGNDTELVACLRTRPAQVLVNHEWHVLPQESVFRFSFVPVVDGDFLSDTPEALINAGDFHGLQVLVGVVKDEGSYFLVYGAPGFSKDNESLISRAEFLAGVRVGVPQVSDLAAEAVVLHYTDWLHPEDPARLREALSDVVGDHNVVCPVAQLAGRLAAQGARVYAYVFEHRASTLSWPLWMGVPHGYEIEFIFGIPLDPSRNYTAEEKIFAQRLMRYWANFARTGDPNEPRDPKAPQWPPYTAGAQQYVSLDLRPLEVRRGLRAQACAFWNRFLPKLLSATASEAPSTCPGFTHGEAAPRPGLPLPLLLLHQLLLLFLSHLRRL
# [4] = biological target: T2, butyrylcholine esterase of human serum origin (Homo sapiens, UniProt P06276); test: biochemical; format: biochemical
# T2 construct: butyrylcholine esterase of human serum origin; purchased Biogenesis, Poole, UK; host or cells: human serum
# T2 sequence (P06276 29-602): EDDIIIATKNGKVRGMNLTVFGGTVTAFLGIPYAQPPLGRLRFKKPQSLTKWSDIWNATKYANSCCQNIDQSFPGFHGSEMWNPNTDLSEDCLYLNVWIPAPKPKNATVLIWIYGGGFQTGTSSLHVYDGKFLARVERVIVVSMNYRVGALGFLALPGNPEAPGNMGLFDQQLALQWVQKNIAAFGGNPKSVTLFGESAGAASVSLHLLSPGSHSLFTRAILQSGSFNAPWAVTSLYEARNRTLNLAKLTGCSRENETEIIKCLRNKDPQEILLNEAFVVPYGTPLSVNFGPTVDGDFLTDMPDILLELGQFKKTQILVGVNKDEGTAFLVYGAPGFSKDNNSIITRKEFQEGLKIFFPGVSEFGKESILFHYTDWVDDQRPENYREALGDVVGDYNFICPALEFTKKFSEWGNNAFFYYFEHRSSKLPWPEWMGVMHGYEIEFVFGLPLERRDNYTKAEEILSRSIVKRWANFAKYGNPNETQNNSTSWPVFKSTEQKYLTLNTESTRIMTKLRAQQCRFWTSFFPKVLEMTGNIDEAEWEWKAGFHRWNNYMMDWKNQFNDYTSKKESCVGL
# Procedure: The AChE inhibitory activity and the BuChE inhibitory activity were determined by a thiocholine method (Ellman method) using acetylcholine esterase of human erythrocyte origin (Sigma, St. Louis, Mo., USA) and butyrylcholine esterase of human serum origin (Biogenesis, Poole, UK). Acetylcholine esterase or butyrylcholine esterase was diluted to a concentration of 0.2 IU/mL with 80 mM tris-HCL buffers (pH=7.4) containing 0.3% bovine serum albumin (BSA) to prepare an enzyme preparation. […] The stock solution was diluted at 3-fold common ratio with 10% DMSO and 80 mM tris-HCl buffers containing 0.3% BSA. On a 96 wells microplate, 20 μL of the drug solution with a given concentration, 30 μL of 80 mM tris-HCl buffers containing 0.3% BSA and 50 μL of the enzyme preparation were distributed, and incubated at room temperature for 1 hour after shaking for 10 seconds. […] For the respective drugs, the test was repeated twice. The % of control of the increase in light absorption was calculated at each concentration with respect to the respective drugs. % of control=increase in light absorption of drug/increase in light absorption of control×100
# bladder muscle = tested on: bladder muscle; design: species or system guinea pig; conditions: for effect on basic tension: drug alone
# [5] = mean value of twice tests, read-out: AchE IC50
# [6] = mean value of twice tests, read-out: BuChE IC50
# [7] = 0.3 μM, 30 minutes, change of basic tension, 100 mM KCl contraction = 100%
# [8] = 1 μM, 30 minutes, change of basic tension, 100 mM KCl contraction = 100%
# [9] = 3 μM, 30 minutes, change of basic tension, 100 mM KCl contraction = 100%
compound,measurement,setting,value
CC(C[N+](C)(C)C)OC(N)=O (stereo not shown) [Bethanechol],"Amount of urination, proportion for value before administration (%)",[1]; 0.1 mg/kg,74.5 ± 13.1%
same,"At maximum urine flow rate Inner pressure of bladder, proportion for value before administration (%)",[1]; 0.1 mg/kg,107.0 ± 7.1%
same,"Maximum urine flow rate, proportion for value before administration (%)",[1]; 0.1 mg/kg,72.8 ± 9.8%
same,"Bladder compliance, proportion for value before administration (%)",[1]; 0.1 mg/kg,75.7 ± 9.8%
same,"Bladder volume, proportion for value before administration (%)",[1]; 0.1 mg/kg,86.0 ± 2.5%
same,"Amount of urination, proportion for value before administration (%)",[1]; 0.3 mg/kg,63.5 ± 8.5%
same,"At maximum urine flow rate Inner pressure of bladder, proportion for value before administration (%)",[1]; 0.3 mg/kg,99.2 ± 6.4%
same,"Maximum urine flow rate, proportion for value before administration (%)",[1]; 0.3 mg/kg,81.00 ± 12.1%
same,"Bladder compliance, proportion for value before administration (%)",[1]; 0.3 mg/kg,62.6 ± 6.8 %
same,"Bladder volume, proportion for value before administration (%)",[1]; 0.3 mg/kg,85.3 ± 6.3%
same,"Amount of urination, proportion for value before administration (%)",[1]; 1 mg/kg,39.1 ± 8.0 %
same,"At maximum urine flow rate Inner pressure of bladder, proportion for value before administration (%)",[1]; 1 mg/kg,104.9 ± 13.0%
same,"Maximum urine flow rate, proportion for value before administration (%)",[1]; 1 mg/kg,66.1 ± 12.3%
same,"Bladder compliance, proportion for value before administration (%)",[1]; 1 mg/kg,45.3 ± 4.9 %
same,"Bladder volume, proportion for value before administration (%)",[1]; 1 mg/kg,66.3 ± 6.0 %
same,change of the parameters at urination and at collection of urine (text),[1],"lowered the amount of urination, bladder volume and bladder compliance significantly"
"O=C(CCCCNCCc1ccccc1Cl)c1cc2c3c(c1)CC(=O)N3CCC2 [Compound B1, 8-[5-[[2-(2-chlorophenyl)ethyl]amino]pentanoyl]-5,6-dihydro-4H-pyrrolo[3,2,1-ij]quinolin-2(1H)-one) hydrochloride]","Bladder compliance, proportion for value before administration",[2]; 0.1 mg/kg,105.1 ± 12.9
same,"Maximum urine flow rate, proportion for value before administration",[2]; 0.1 mg/kg,170.4 ± 27.8
same,Selectivity b/a,[3]; BuChE IC50/AChE IC50 (Table 3),100
same,IC50,[3]; [5],56 nM
same,IC50,[4]; [6],5700 nM
"CN(CCCCC(=O)c1ccc2[nH]c(=O)[nH]c2c1)CCc1ccccc1Cl [Compound B2, 5-[5-[[2-(2-chlorophenyl)ethyl](methyl)amino]pentanoyl]-1,3-dihydro-2H-benzoimidazol-2-one) hydrochloride]","Bladder compliance, proportion for value before administration",[2]; 0.3 mg/kg,95.0 ± 5.1
same,"Maximum urine flow rate, proportion for value before administration",[2]; 0.3 mg/kg,138.1 ± 13.1
same,Selectivity b/a,[3]; BuChE IC50/AChE IC50 (Table 3),>45
same,IC50,[3]; [5],224 nM
same,IC50,[4]; [6],> 10000 nM
"CN(CCCCC(=O)c1ccc2c(c1)n(C)c(=O)n2C)CCc1ccccc1Cl [Compound B3, 5-[5-[[2-(2-chlorophenyl)ethyl](methyl)amino]pentanoyl]-1,3-dimethyl-1,3-dihydro-2H-benzoimidazol-2-one) hydrochloride]","Bladder compliance, proportion for value before administration",[2]; 0.1 mg/kg,94.7 ± 11.1
same,"Maximum urine flow rate, proportion for value before administration",[2]; 0.1 mg/kg,150.8 ± 19.4
same,Selectivity b/a,[3]; BuChE IC50/AChE IC50 (Table 3),>350
same,IC50,[3]; [5],28 nM
same,IC50,[4]; [6],> 10000 nM
"CCNC(=O)N1CCc2cc(C(=O)CCCCNCCc3ccccc3OC)ccc21.Cl [Compound B4, N-ethyl-5-[5-[[2-(2-methoxyphenyl)ethyl]amino]pentanoyl]-1-indolincarboxamide hydrochloride]","Bladder compliance, proportion for value before administration",[2]; 0.3 mg/kg,104.2 ± 8.1
same,"Maximum urine flow rate, proportion for value before administration",[2]; 0.3 mg/kg,165.4 ± 14.9
same,IC50,[3],118 nM
same,Selectivity b/a,[3]; BuChE IC50/AChE IC50 (Table 3),>85
same,IC50,[4]; read-out: BuChE IC50,> 10000 nM
"COc1ccccc1CCNCCCCC(=O)c1ccc2c(c1)n(C)c(=O)n2C [Compound B5, 5-[5-[[2-(2-methoxyphenyl)ethyl]amino]pentanoyl]-1,3-dimethyl-1,3-dihydro-2H-benzoimidazol-2-one) hydrochloride]","Bladder compliance, proportion for value before administration",[2]; 0.03 mg/kg,95.0 ± 4.3
same,"Maximum urine flow rate, proportion for value before administration",[2]; 0.03 mg/kg,135.5 ± 19.1
same,Selectivity b/a,[3]; BuChE IC50/AChE IC50 (Table 3),>150
same,IC50,[3]; [5],65 nM
same,IC50,[4]; [6],> 10000 nM
CN(CCCCCCN(C)C(=O)Oc1ccc[n+](C)c1)C(=O)Oc1ccc[n+](C)c1 [Distigmine],"Amount of urination, proportion for value before administration (%)",[1]; 0.03 mg/kg,73.9 ± 4.4%
same,"At maximum urine flow rate Inner pressure of bladder, proportion for value before administration (%)",[1]; 0.03 mg/kg,112.7 ± 6.6%
same,"Maximum urine flow rate, proportion for value before administration (%)",[1]; 0.03 mg/kg,75.1 ± 6.8%
same,"Bladder compliance, proportion for value before administration (%)",[1]; 0.03 mg/kg,64.6 ± 6.0%
same,"Bladder volume, proportion for value before administration (%)",[1]; 0.03 mg/kg,80.6 ± 3.3%
same,"Amount of urination, proportion for value before administration (%)",[1]; 0.1 mg/kg,89.8 ± 10.3%
same,"At maximum urine flow rate Inner pressure of bladder, proportion for value before administration (%)",[1]; 0.1 mg/kg,115.9 ± 4.2%
same,"Maximum urine flow rate, proportion for value before administration (%)",[1]; 0.1 mg/kg,76.4 ± 5.8%
same,"Bladder compliance, proportion for value before administration (%)",[1]; 0.1 mg/kg,53.4 ± 2.2 %
same,"Bladder volume, proportion for value before administration (%)",[1]; 0.1 mg/kg,83.6 ± 5.9%
same,"Amount of urination, proportion for value before administration (%)",[1]; 0.3 mg/kg,65.8 ± 11.9%
same,"At maximum urine flow rate Inner pressure of bladder, proportion for value before administration (%)",[1]; 0.3 mg/kg,142.4 ± 6.1 %
same,"Maximum urine flow rate, proportion for value before administration (%)",[1]; 0.3 mg/kg,49.2 ± 7.0%
same,"Bladder compliance, proportion for value before administration (%)",[1]; 0.3 mg/kg,68.3 ± 7.9%
same,"Bladder volume, proportion for value before administration (%)",[1]; 0.3 mg/kg,80.0 ± 4.5%
same,change of the parameters at urination and at collection of urine (text),[1],lowered the bladder compliance significantly
same,change of the parameters at urination and at collection of urine (text),[1]; listed as distigmine,did not show clear action for the amount of urination and the maximum urine flow rate and increased urination pressure significantly
same,inhibition of the activity of human acetylcholine esterase,[3],inhibited the activity of human acetylcholine esterase
same,"selectivity for acetylcholine esterase inhibitory activity (text, words)",[3],had scarcely selectivity
same,Selectivity b/a,[3]; BuChE IC50/AChE IC50 (Table 2),1.4
same,IC50,"[3]; mean value of twice tests, read-out: Acetylcholine esterase IC50",380 nM
same,inhibitory activity for human butyrylcholine esterase,[4],inhibitory activity was confirmed
same,IC50,"[4]; mean value of twice tests, read-out: Butyrylcholine esterase IC50",540 nM
same,Tension (%),"bladder muscle; 0.1 μM, 30 minutes, change of basic tension, 100 mM KCl contraction = 100%",−1.49 ± 0.30%
same,Tension (%),bladder muscle; [7],−0.78 ± 0.50%
same,Tension (%),bladder muscle; [8],−0.35 ± 0.73%
same,Tension (%),bladder muscle; [9],0.64 ± 0.49 %
same,effect on basic tension,bladder muscle,increased tension slightly but significantly
CN(C)C(=O)Oc1ccc[n+](C)c1 [Pyridostigmine],Tension (%),bladder muscle; [7],−1.49 ± 0.52%
same,Tension (%),bladder muscle; [8],0.04 ± 0.38%
same,Tension (%),bladder muscle; [9],2.87 ± 0.85 %
same,Tension (%),"bladder muscle; 10 μM, 30 minutes, change of basic tension, 100 mM KCl contraction = 100%",7.71 ± 1.30 %
same,Tension (%),"bladder muscle; 30 μM, 30 minutes, change of basic tension, 100 mM KCl contraction = 100%",14.38 ± 1.62 %
same,effect on basic tension,bladder muscle,increased basic tension significantly and concentration-dependently
"CC(C)NP(=O)(NC(C)C)OP(=O)(NC(C)C)NC(C)C [iso-OMPA, tetraisopropylpyrophosphoramide]",inhibitory activity for human butyrylcholine esterase,[4],showed the inhibitory activity to only butyrylcholine esterase
same,Tension (%),"bladder muscle; Table 5: iso-OMPA 10 μM, Compound A 0 μM",−1.31 ± 0.21%
same,Tension (%),"bladder muscle; Table 5: iso-OMPA 100 μM, Compound A 0 μM",−0.85 ± 0.38%
same,effect on basic tension,bladder muscle,alone did not influence tension either
